Source: patent publication US9616101B2, “Differentiation marker and differentiation control of eye cell” (Kyoto Prefectural Public University Corporation, priority 2012, dated 2017)
“Also recorded” adds a separate entry of the source.

B1: RSPO3: human recombinant R-spondin 3, R&D systems catalog No. 3500-RS (protein, listed as Homo sapiens)
chain: MHLRLISWLFIILNFMEYIGSQNASRGRRQRRMHPNVSQGCQGGCATCSDYNGCLSCKPRLFFALERIGMKQIGVCLSSCPSGYYGTRYPDINKCTKCKADCDTCFNKNFCTKCKSGFYLHLGKCLDNCPEGLEANNHTMECVSIVHCEVSEWNPWSPCTKKGKTCGFKRGTETRVREIIQHPSAKGNLCPPTNETRKCTVQRKKCQKGERGKKGRERKRKKPNKGESKEAIPDSKSLESSKEIPEQRENKQQQKKRKVQDKQKSVSVSTVH
B2: RSPO2: human recombinant R-spondin 2, R&D systems catalog No. 3266-RS (protein, listed as Homo sapiens)
chain: MQFRLFSFALIILNCMDYSHCQGNRWRRSKRASYVSNPICKGCLSCSKDNGCSRCQQKLFFFLRREGMRQYGECLHSCPSGYYGHRAPDMNRCARCRIENCDSCFSKDFCTKCKVGFYLHRGRCFDECPDGFAPLEETMECVEGCEVGHWSEWGTCSRNNRTCGFKWGLETRTRQIVKKPVKDTILCPTIAESRRCKMTMRHCPGGKRTPKAKEKRNKKKKRKLIERAQEQHSVFLATDRANQ
B3: RSPO4: human recombinant R-spondin 4, R&D systems catalog No. 4575-RS (protein, UniProt Q2I0M5 20-234, looked up)
R-spondin-4: LNRRKKQVGTGLGGNCTGCIICSEENGCSTCQQRLFLFIRREGIRQYGKCLHDCPPGYFGIRGQEVNRCKKCGATCESCFSQDFCIRCKRQFYLYKGKCLPTCPPGTLAHQNTRECQGECELGPWGGWSPCTHNGKTCGSAWGLESRVREAGRAGHEEAATCQVLSESRKCPIQRPCPGERSPGQKKGRKDRRPRKDRKLDRRLDVRPRQPGLQP

Experiments:
Assay type in all cases: cell-based
GPR49/LGR5 expression [1] = assay: GPR49/LGR5 expression in human corneal tissue treated with Hedgehog signal modulators; conditions: 100 ng/ml rhShh, 10 μM purmorphamine, 10 μM cyclopamine, 3 days
Text: (§1) A corneal tissue was embedded with OCT compound (catalog No.: 4583; Sakura Finetek, Tokyo, Japan), and frozen in liquid nitrogen to prepare a frozen corneal tissue section. The frozen block was sliced to 8 μm, applied on a silane-coating slide, and air-dried. For preparing the whole tissue section, a Descemet's membrane containing a corneal endothelial cell was peeled from a corneal tissue, allowed to stand in ice-cooled 100% acetone for 30 seconds, applied on a silane-coating slide, and air-dried. As a cultured corneal endothelial cell, a cell cultured on a LabTek 8-well plastic chamber slide was used. Ice-cooled 100% acetone was added to a corneal tissue and the cultured cell, the resultant was allowed to stand at 4° C. for 15 minutes to fix the cell. After shaking and washing with 0.15% TritonX/PBS-, 1% bovine serum albumin (catalog No.: A4503BSA; Sigma-Aldrich, St. Louis, Mo.) was added, and allowed to stand at room temperature for 30 minutes to perform blocking. A primary antibody was diluted with 1% BSA, and incubated at room temperature for 1 hour. As a primary antibody to be used, anti-rabbit GPR49/LGR5 (catalog No.: GTX71143; 1: 200; GeneTex Inc., San Antonio, Tex.), anti-rabbit Nestin (catalog No.: PRB-570C; 1: 200; COVANCE, Berkeley, Calif.), anti-mouse ABCG2 (catalog No.: NC_236; 1: 2; Kamiya biomedical CO., Seattle, Wash. USA), anti-mouse Ki-67 (catalog No.: 556003; 1: 200 BD Pharmingen™ NJ, USA), anti-rabbit Na^+/K^+ ATPase (catalog No.: A132; 1: 100; Zymed), and anti-rabbit ZO1 (Zymed Laboratries Inc., South San Francisco, Calif.) were used. The resultant was washed with 0.15% Triton/PBS- twice, and PBS- once.
For extracting RNA from a corneal tissue and a cultured cell, RNeasy Mini Kit (catalog No.: 74106; QIAGEN, Valencia, Calif.) was used. Added was 1 μl of OligodT Primer (catalog No.: 18418-020; Invitrogen) per 1 μg of the extracted RNA, and the resultant was incubated at 70° C. for 2 minutes, and immediately ice-cooled. […] The resulting data were analyzed by ABI PRISM (registered trademark) 7000 Sequence Detection System. […]

[2] = tested on: cultured human corneal endothelial cell; assay: Ki-67 immunostaining and cell morphology of cultured human corneal endothelial cell treated with Hedgehog signal modulators; conditions: primary human corneal endothelial cell, 2 μM cyclopamine, 3 days; for Ki-67 expression (cell proliferation) as compared with a control: 100 ng/ml rhShh, 2 μM purmorphamine
Protocol: (§2) After 3 days, immunostain of GPR49/LGR5 and Ki-67 was performed. In addition, RNA of a corneal endothelial cell incubated under the same conditions was extracted, and the amount of expression of mRNA was measured by real time PCR.

GPR49/LGR5 expression [3] = assay: GPR49/LGR5 expression in cultured human corneal endothelial cell treated with Hedgehog signal modulators; conditions: primary human corneal endothelial cell; 100 ng/ml rhShh, 2 μM purmorphamine, 2 μM cyclopamine; 3 days
Protocol: as §2

[4] = tested on: human corneal endothelial cell; assay: Ki67 immunostaining of human corneal endothelial cells incubated with RSPO1 to 4
Text: as §1
A secondary antibody was diluted with a mixed solution of 1% BSA and 0.15% TrironX/PBS-, and incubated at room temperature for 30 minutes. As a secondary antibody to be used, Alexa™ Fluor 488-labeled (conjugated) goat anti-rabbit IgG (catalog No.: A11034; 1: 1500; Molecular Probe-Invitrogen) and Alexa™ Fluor 488-labeled (conjugated) goat anti-mouse IgG (catalog No.: A11029; 1: 1500; Molecular Probe-Invitrogen) were used. The secondary antibody was shaken and washed with 0.15% Triton/PBS- twice, and PBS- once, subjected to nuclear staining with propidium iodide (catalog No.: SP29004-41; PI; Nacalai Tesque, Inc. Kyoto, Japan), and embedded while covered with a cover glass.
In order to investigate a relationship between R-sporadin 1 (RSPO1), R-spondin 2 (RSPO2), R-spondin 3 (RSPO3), or R-spondin 4 (RSPO4) and differentiation of a corneal endothelial cell, the relationship was studied using RSPO1. Reagents used are as follows. • RSPO1 R&D systems catalog No.: 4645-RS • RSPO2 R&D systems catalog No.: 3266-RS • RSPO3 R&D systems catalog No.: 3500-RS • RSPO4 R&D systems catalog No.: 4575-RS
Then, for the purpose of investigating the influence of RSPO on cell proliferation, RSPO1 to 4 were incubated into a human corneal endothelial cell under conditions of 37° C. and 5% CO2 for 1 day. Thereafter, Ki-67 being a cell proliferation marker was immunostained.

Molecule	expression of GPR49/LGR5 as compared with a control (immunostaining; same result at the mRNA expression level) (GPR49/LGR5 expression [1])	Ki-67 expression (cell proliferation) as compared with a control [2]	also measured
CC1=C2C[C@H]3[C@@H](CC=C4C[C@@H](O)CC[C@@]43C)[C@@H]2CC[C@]12O[C@@H]1C[C@H](C)CN[C@H]1[C@H]2C [cyclopamine]	clear expression suppression	suppression of cell proliferation; also recorded: not upregulated	cell morphology [2]: abnormality of cell morphology; also recorded: could not maintain a normal hexagonal form
rhShh: recombinant human Sonic hedgehog, ligand of the Hedgehog pathway binding to Ptch1	remarkable increase (upregulation)	elevated	cell expressing GPR49/LGR5 (GPR49/LGR5 expression [3]): confirmed; Ki-67 expression (cell proliferation) as compared with a control ([2]; listed as SHH): upregulated
c1ccc2c(Oc3nc(Nc4ccc(N5CCOCC5)cc4)c4ncn(C5CCCCC5)c4n3)cccc2c1 [purmorphamine, N-(4-morpholinophenyl)-2-(1-naphthyloxy)-9-cyclohexyl-9H-purine-6-amine]	remarkable increase (upregulation)	elevated; also recorded: upregulated	–
B1	–	–	Ki67-positive cell rate as compared with a control ([4]; RSPO3 50 ng/ml, 200 ng/ml (FIG. 13)): slightly increased
B2	–	–	Ki67-positive cell rate as compared with a control ([4]; RSPO2 50 ng/ml, 100 ng/ml (FIG. 12)): slightly increased
B3	–	–	Ki67-positive cell rate as compared with a control ([4]; RSPO4 50 ng/ml, 500 ng/ml (FIG. 14)): slightly increased
